Assay results as given in patent US8859608B2, “Spiro amino compounds suitable for the treatment of inter alia sleep disorders and drug addiction” (Rottapharm Biotech S.R.L., priority 2009, dated 2014).

Molecular target: T1, human OX1 receptor (Homo sapiens, UniProt O43613)
T1 sequence (O43613 1-425): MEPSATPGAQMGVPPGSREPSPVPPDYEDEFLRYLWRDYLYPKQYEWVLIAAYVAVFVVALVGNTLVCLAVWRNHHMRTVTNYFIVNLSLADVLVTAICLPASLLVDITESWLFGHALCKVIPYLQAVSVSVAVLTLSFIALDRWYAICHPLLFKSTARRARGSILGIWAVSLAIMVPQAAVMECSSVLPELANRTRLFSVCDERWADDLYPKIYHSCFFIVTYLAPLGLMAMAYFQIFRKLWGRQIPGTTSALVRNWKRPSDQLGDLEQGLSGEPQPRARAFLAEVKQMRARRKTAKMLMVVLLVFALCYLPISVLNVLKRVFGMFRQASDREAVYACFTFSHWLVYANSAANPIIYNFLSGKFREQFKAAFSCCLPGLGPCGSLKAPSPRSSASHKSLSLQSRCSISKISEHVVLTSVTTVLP
Assay: FLIPR measurement of intracellular calcium, antagonistic activity at OX1
Details: pKb OX1, CHO cells with human recombinant OX1, activated with orexin-A 3 nM; 1 nM-1 μM range; modified Cheng Prusoff
Procedure: Thus the plate was loaded with the calcium dye (Fluo-4NW/probenecid in HBSS, Hepes 20 mM, pH 7,4; Invitrogen) at 37° C. for 60 min. Afterward the temperature was equilibrated at 22° C. for 15 min and the [Ca2+]i measured directly on the plate by using a fluorescent plate reader (CeliLux Perkin Elmer).
After 5 min CHO cells were activated with orexin-A, 3 nM while HEK-293 cells were activated with orexin-B, 10 nM.
The antagonistic activity has been expressed as pKb (co-logarithm of the apparent dissociation constant calculated by using the modified Cheng Prusoff equation).

SMILES | Kb
Cc1nc(C(=O)N2CCC3(CC3)CC2CNc2ccc(Cl)cn2)c(-c2ccccc2)s1 (racemic) [Compound 4, (±) (5-((5-chloropyridin-2-ylamino)methyl)-6-azaspiro[2.5]octan-6-yl)(2-methyl-5-phenylthiazol-4-yl)methanone] | 25.1 nM
Cc1nc(C(=O)N2CCC3(CC3)CC2CNc2ccc(Cl)cn2)c(-c2ccc(F)cc2)s1 (racemic) [Compound 10, (±) (5-((5-chloropyridin-2-ylamino)methyl)-6-azaspiro[2.5]octan-6-yl)(5-(4-fluorophenyl)-2-methylthiazol-4-yl)methanone] | 39.8 nM
Cc1ccc(-n2nccn2)c(C(=O)N2CCC3(CC3)CC2CNc2ccc(Cl)cn2)c1 (racemic) [Compound 11, (±)(5-((5-chloropyridin-2-ylamino)methyl)-6-azaspiro[2.5]octan-6-yl)(5-methyl-2-(2H-1,2,3-triazol-2-yl)phenyl)methanone] | 31.6 nM
Cc1ccc(-c2ncccn2)c(C(=O)N2CCC3(CC3)CC2CNc2ccc(Cl)cn2)c1 (racemic) [Compound 12, (±)(5-((5-chloropyridin-2-ylamino)methyl)-6-azaspiro[2.5]octan-6-yl)(5-methyl-2-(pyrimidin-2-yl)phenyl)methanone] | 50.1 nM
Cc1cccc(NCC2CC3(CCCC3)CCN2C(=O)c2nc(C)sc2-c2ccccc2)n1 (racemic) [Compound 54, (±)(2-methyl-5-phenylthiazol-4-yl)(7-(((6-methylpyridin-2-4amino)methyl)-8-azaspiro[4.5]decan-8-yl)methanone] | 63.1 nM
Cc1nc(C(=O)N2CCC3(CCCC3)CC2CNc2ccc(Cl)cn2)c(-c2ccccc2)s1 (racemic) [Compound 55, (±)(7-(((5-chloropyridin-2-yl)amino)methyl)-8-azaspiro[4.5]decan-8-yl)(2-methyl-5-phenylthiazol-4-yl)methanone] | 39.8 nM
Cc1cccc(NCC2CC3(CCN2C(=O)c2nc(C)sc2-c2ccccc2)CC3)n1 (single isomer, unassigned) [Compound 3, (2-methyl-5-phenylthiazol-4-yl)(5-((6-methylpyridin-2-ylamino)methyl)-6-azaspiro[2.5]octan-6-yl)methanone] | 39.8 nM
Cc1ccc(-c2ncccn2)c(C(=O)N2CCC3(CC3)C[C@H]2CNc2ccc(Cl)cn2)c1 (single isomer, unassigned) [Compound 13] | 25.1 nM
Cc1nc(C(=O)N2CCC3(CC3)C[C@H]2CNc2ccc(F)cn2)c(-c2ccccc2)s1 [Compound 16, (S)-(5-(((5-fluoropyridin-2-yl)amino)methyl)-6-azaspiro[2.5]octan-6-yl)(2-methyl-5-phenylthiazol-4-yl)methanone] | 63.1 nM
Cc1ccc(-n2nccn2)c(C(=O)N2CCC3(CC3)C[C@H]2CNc2cccc(Cl)n2)c1 [Compound 19, (S)-(5-(((6-chloropyridin-2-yl)amino)methyl)-6-azaspiro[2.5]octan-6-yl)(5-methyl-2-(2H-1,2,3-triazol-2-yl)phenyl)methanone] | 126 nM
Cc1ccc(-n2nccn2)c(C(=O)N2CCC3(CC3)C[C@H]2CNc2cccc(C(F)(F)F)n2)c1 [Compound 20, (S)-(5-methyl-2-(2H-1,2,3-triazol-2-yl)phenyl)(5-(((6-(trifluoromethyl)pyridin-2-yl)amino)methyl)-6-azaspiro[2.5]octan-6-yl)methanone] | 50.1 nM
Cc1ccnc(NC[C@@H]2CC3(CCN2C(=O)c2nc(C)sc2-c2ccccc2)CC3)n1 [Compound 21, (S)-(2-methyl-5-phenylthiazol-4-yl)(5-(((4-methylpyrimidin-2-yl)amino)methyl)-6-azaspiro[2.5]octan-6-yl)methanone] | 126 nM
Cc1cnc(NC[C@@H]2CC3(CCN2C(=O)c2nc(C)sc2-c2ccccc2)CC3)nc1 [Compound 23, (S)-(2-methyl-5-phenylthiazol-4-yl)(5-(((5-methylpyrimidin-2-yl)amino)methyl)-6-azaspiro[2.5]octan-6-yl)methanone] | 50.1 nM
